IC50 and melting point data for 25 compounds are collected here from patent US8188277B2, “Aromatic compounds for suppressing the generation of collagen” (Otsuka Pharmaceutical Co., Ltd., priority 2004, dated 2012).

Structures can show the parent of a compound that is named as a salt.

For one data set, the system named is LI90 cells, a human stellate cell line. The data set can be described thus: Collagen synthesis inhibition (3H-proline incorporation) in TGF-β1-stimulated LI90 cells. The class given is cell-based. The settings on record: 10 pM h-TGF-β1, 16 hours with test compound, 3H-proline labelling 24 hours, concentration at which T/C = 0.5, read-out: Collagen synthesis inhibitory activity IC50. The procedure:
The cultured cells were then washed with D-PBS(−) (DULBECCO's phosphate buffered saline), and subsequently further cultured for 3 days in MEM (Eagle's minimum essential medium) supplemented with 0.1% fetal bovine serum. The cultured cells were again washed with D-PBS(−), and cultured for 16 hours in MEM (0.1% fetal bovine serum with respect to a total MEM volume) which contained a test compound and 10 pM h-TGF-β1 (human transforming growth factor β1). Next, the cultured LI90 cells were washed with D-PBS(−), and cultured for 24 hours in MEM containing ^3H-proline (radioactive labelled compound) and 0.25 mM ascorbic acid. The produced collagen was labelled with RI (radioactive isotope). From this culture supernatant, an acid-soluble fraction was extracted. Radioactivity was measured for this fraction. The measured value was taken to be the collagen synthesis activity.
Radioactivity of the culture supernatant cultured with the test compound was compared with that of the culture supernatant cultured without the test compound to calculate a collagen synthesis inhibitory activity (T/C) and determine a concentration (μM) at which collagen synthesis was inhibited by 50% (IC50=a concentration of the test compound at which T/C corresponded to 0.5). T/C=(Radioactivity of culture supernatant cultured with the test compound)/(radioactivity of culture supernatant cultured without the test compound)
On to `O=C(Nc1ccc(Oc2ccc(N3CCC(CC(=O)N4CCN(Cc5ccc6c(c5)OCO6)CC4)CC3)cc2)nc1)c1ccc(C(F)(F)F)cc1` [Example No. 319, N-[6-(4-{4-[2-(piperonyl-piperazin-1-yl)-2-oxoethyl]piperidin-1-yl}phenoxy)-pyridin-3-yl]-4-trifluoromethylbenzamide], for which the IC50 was 1.9 nM.

The data set is the same for the next values; noted with them: Homo sapiens, 10 pM h-TGF-β1, 16 hours with test compound, 3H-proline labelling 24 hours, concentration at which T/C = 0.5, read-out: Collagen synthesis inhibitory activity IC50.
Take `Cc1cc(N(C)CC(=O)N2CCN(Cc3ccc4c(c3)OCO4)CC2)ccc1Oc1ccc(NC(=O)c2ccc(C(F)(F)F)cc2)cn1` [Example No. 1503, N-[6-(4-{[2-(4-piperonylpiperazin-1-yl)-2-oxoethyl]methylamino}-2-methylphenoxy)pyridin-3-yl]-4-trifluoromethylbenzamide]: the IC50 is 7.8 nM.
The same measure, in the same setting: as for `O=C(Nc1ccc(Oc2ccc(CCC(=O)N3CCN(Cc4ccc5c(c4)OCO5)CC3)cc2)nc1)c1ccc(C(F)(F)F)cc1` [Example No. 1039, N-(6-{4-[3-(4-piperonylpiperazin-1-yl)-3-oxopropyl]phenoxy}pyridin-3-yl)-4-trifluoromethylbenzamide], the figure is 22 nM; as for `O=C(Nc1ccc(Cl)c(Cl)c1)c1ccc(Oc2ccc(CCC(=O)N3CCN(Cc4ccc5c(c4)OCO5)CC3)cc2)nc1` [Example No. 2100, 6-{4-[3-(4-piperonylpiperazin-1-yl)-3-oxopropyl]phenoxy}-N-(3,4-dichlorophenyl)nicotinamide], 79 nM.

Tested on in the next data set: not given
Assay: not given
Settings: not given
`COc1cc(N(C)CC(=O)N2CCN(Cc3ccoc3)CC2)ccc1Oc1ccc(NC(=O)c2ccc(C(F)(F)F)cc2)cn1` [compound 785] displayed a melting point of 160 to 164 °C.
The compound `O=C(Nc1ccc(Oc2ccc(C(=O)N3CCOCC3)cc2)cc1)c1ccc(Cl)c(Cl)c1` [Example No. 10] came in with a melting point of 189 to 192 °C.
Still for that read-out and setting: as for `CN(CC(=O)N1CCN(Cc2ccc3c(c2)OCO3)CC1)c1ccc(Oc2ccc(NC(=O)c3ccc(Cl)c(Cl)c3)cn2)c(F)c1` [compound 729], the figure is 199 to 201 °C; as for `O=C(Nc1ccc(Oc2ccc(CCC(=O)N3CCN(c4cccnc4)CC3)cc2)cc1)c1ccc(Cl)c(Cl)c1` [compound 466], 153 to 155 °C.
Turning to `O=C(Nc1ccc(Oc2ccc(N3CCN(Cc4ccccc4)C3=O)cc2)nc1)c1ccc(C(F)(F)F)cc1` [compound 1181], the melting point is 203 to 204 °C.
`COc1ccc(CN2CCCN(c3ccc(Oc4ccc(NC(=O)c5ccc(Cl)c(Cl)c5)cn4)c(C)c3)C2=O)cc1OC` [compound 1187] yielded a melting point of 117 to 118 °C.
In turn, `Cc1cc(N(C)CC(=O)N2CCN(Cc3ccc4c(c3)OCO4)CC2)ccc1Oc1ccc(NC(=O)c2ccc(-n3cccc3)cc2)cn1` [compound 2711, N-[6-(4-{[2-(4-piperonylpiperazin-1-yl)-2-oxoethyl]methylamino}-2-methylphenoxy)pyridin-3-yl]-4-pyrrole-1-ylbenzamide] had a melting point of 163.1 to 166.5 °C.
Compound `Cc1cc(N(C)CC(=O)N2CCN(Cc3ccccc3)CC2)ccc1Oc1ccc(NC(=O)c2ccc(C(F)(F)F)cc2)cn1` [compound 1515] came in with a melting point of 110 to 111 °C.
Consider `O=C(Nc1ccc(Oc2ccc(C(O)CN3CCOCC3)cc2)c(F)c1)c1ccc(Cl)c(Cl)c1` (stereo not shown) [compound 2677], for which the melting point lay within 142 to 145 °C.
On to `O=C(Nc1ccc(Oc2ccc(C3=CCN(CCCn4ccnc4)CC3)cc2)cc1)c1ccc(Cl)c(Cl)c1` [compound 2486, 3,4-Dichloro-N-(4-{4-[1-(3-imidazole-1-ylpropyl)-1,2,3,6-tetrahydropyridine-4-yl]phenoxy}phenyl)-benzamide], for which the melting point is 169 to 171 °C.
The compound `Cc1cc(N(C)CC(=O)N2CCN(Cc3ccoc3)CC2)ccc1Oc1ccc(NC(=O)c2ccc(C(F)(F)F)cc2)cn1` (as salt: hydrochloride) [compound 792] yielded a melting point of 158.5 to 161 °C.
As for `Cc1cc(N2CCC(CC(=O)N3CCN(Cc4ccc5c(c4)OCO5)CC3)CC2)ccc1Oc1ccc(NS(=O)(=O)c2ccc(C(F)(F)F)cc2)cn1` [compound 2703, N-[6-(4-{4-[2-(4-piperonylpiperazin-1-yl)-2-oxoethyl]piperidin-1-yl}-2-methylphenoxy)pyridin-3-yl]-4-trifluoromethylbenzenesulfonamide], the melting point was in the range of 156 to 158 °C.
Still for that read-out and setting: then `O=C(Nc1ccc(Oc2ccc(CCC(=O)N3CCN(c4cccnc4)CC3)cc2)c(F)c1)c1ccc(Cl)c(Cl)c1` [compound 467], with 183 to 185 °C.
`CCN(CC(=O)N1CCN(Cc2ccc3c(c2)OCO3)CC1)c1ccc(Oc2ccc(NC(=O)c3ccc(C(F)(F)F)cc3)cn2)c(F)c1` [compound 775]: the melting point is 170 to 172 °C.
With `O=C(Nc1ccc(Oc2ccc(C(=O)N3CCN(c4ccccn4)CC3)cc2)nc1)c1ccc(C(F)(F)F)cc1` [compound 176], the melting point lay within 222 to 224 °C.
Compound `CCN(CC(=O)N1CCN(Cc2ccccc2)CC1)c1ccc(Oc2ccc(NC(=O)c3ccc(Cl)c(Cl)c3)cn2)c(C)c1` [compound 1514] had a melting point of 102 to 105 °C.
`O=C(Nc1ccc(Oc2ccc(C3=CCN(C(=O)CN4CCOCC4)CC3)cc2)cc1)c1ccc(Cl)c(Cl)c1` [compound 2565] came in with a melting point of 195 to 197 °C.
The same measure, in the same setting: then `COc1ccc(CN2CCCN(c3ccc(Oc4ccc(NC(=O)c5ccc(C(F)(F)F)cc5)cn4)c(C)c3)C2=O)cc1OC` [compound 1185], with 155 to 157 °C; and `CN(C(=O)CN1CCOCC1)C1CCN(c2ccc(Oc3ccc(NC(=O)c4ccc(Cl)c(Cl)c4)cc3)cc2)CC1` [compound 2572], with 157 to 160 °C; and `Cc1cc(N2CCCN(CC(=O)N3CCN(Cc4ccc5c(c4)OCO5)CC3)C2=O)ccc1Oc1ccc(NC(=O)c2ccc(C(F)(F)F)cc2)cn1` [compound 1186], with 182 to 183.5 °C.
Consider `Cc1cc(N(C)CC(=O)N2CCN(Cc3ccoc3)CC2)ccc1Oc1ccc(NC(=O)c2ccc(Cl)c(Cl)c2)cn1` [compound 718], for which the melting point is 116.5 to 118 °C.
